From patent publication US10016438B2, “Bicyclic heterocycles as FGFR4 inhibitors” (Incyte Corporation, priority 2015, dated 2018)

Assays:
FGFR4 = FGFR4 (Homo sapiens (Human), UniProt P22455); assay: FGFR Enzymatic Assay (FRET peptide phosphorylation), FGFR4; conditions: for FGFR1/FGFR4 / FGFR2/FGFR4 / FGFR3/FGFR4: IC50 ratio showing FGFR4 selectivity
From the text: (§1) The enzymes were purchased from Millipore or Invitrogen.
(§2) GraphPad prism3 was used to analyze the data. The IC50 values were derived by fitting the data to the equation for a sigmoidal dose-response with a variable slope. Y=Bottom+(Top−Bottom)/(1+10^((Log IC50−X)*HillSlope)) where X is the logarithm of concentration and Y is the response.

FGFR1 = FGFR1 (Homo sapiens (Human), UniProt P11362); assay: FGFR Enzymatic Assay (FRET peptide phosphorylation), FGFR1; conditions: read-out: FGFR1 IC50; pre-incubated for 4 hours
FGFR1, sequence (P11362 22-822): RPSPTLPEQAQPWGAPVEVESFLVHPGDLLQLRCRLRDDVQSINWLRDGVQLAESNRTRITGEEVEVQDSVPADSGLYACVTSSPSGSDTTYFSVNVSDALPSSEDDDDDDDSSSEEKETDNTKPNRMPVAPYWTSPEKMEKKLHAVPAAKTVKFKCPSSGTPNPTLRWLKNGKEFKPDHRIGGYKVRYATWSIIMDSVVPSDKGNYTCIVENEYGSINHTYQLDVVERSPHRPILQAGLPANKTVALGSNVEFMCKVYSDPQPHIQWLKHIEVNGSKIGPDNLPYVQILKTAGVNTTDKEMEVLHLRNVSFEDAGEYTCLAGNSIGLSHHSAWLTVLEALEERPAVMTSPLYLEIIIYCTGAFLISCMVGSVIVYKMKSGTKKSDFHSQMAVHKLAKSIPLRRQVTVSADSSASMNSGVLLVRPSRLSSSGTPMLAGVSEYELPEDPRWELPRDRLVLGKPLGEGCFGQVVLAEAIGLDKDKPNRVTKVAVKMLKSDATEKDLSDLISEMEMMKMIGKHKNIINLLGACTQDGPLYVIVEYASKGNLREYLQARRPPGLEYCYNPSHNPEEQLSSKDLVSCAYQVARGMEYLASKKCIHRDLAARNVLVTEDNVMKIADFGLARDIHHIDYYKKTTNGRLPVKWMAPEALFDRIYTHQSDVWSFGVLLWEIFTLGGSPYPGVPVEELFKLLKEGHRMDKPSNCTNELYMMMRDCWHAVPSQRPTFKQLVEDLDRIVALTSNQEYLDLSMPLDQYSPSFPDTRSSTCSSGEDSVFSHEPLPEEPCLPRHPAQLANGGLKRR
From the text: as §1, §2

FGFR3 = FGFR3 (Homo sapiens (Human), UniProt P22607); assay: FGFR Enzymatic Assay (FRET peptide phosphorylation), FGFR3; conditions: read-out: FGFR3 IC50; pre-incubated for 4 hours
FGFR3, sequence (P22607 23-806): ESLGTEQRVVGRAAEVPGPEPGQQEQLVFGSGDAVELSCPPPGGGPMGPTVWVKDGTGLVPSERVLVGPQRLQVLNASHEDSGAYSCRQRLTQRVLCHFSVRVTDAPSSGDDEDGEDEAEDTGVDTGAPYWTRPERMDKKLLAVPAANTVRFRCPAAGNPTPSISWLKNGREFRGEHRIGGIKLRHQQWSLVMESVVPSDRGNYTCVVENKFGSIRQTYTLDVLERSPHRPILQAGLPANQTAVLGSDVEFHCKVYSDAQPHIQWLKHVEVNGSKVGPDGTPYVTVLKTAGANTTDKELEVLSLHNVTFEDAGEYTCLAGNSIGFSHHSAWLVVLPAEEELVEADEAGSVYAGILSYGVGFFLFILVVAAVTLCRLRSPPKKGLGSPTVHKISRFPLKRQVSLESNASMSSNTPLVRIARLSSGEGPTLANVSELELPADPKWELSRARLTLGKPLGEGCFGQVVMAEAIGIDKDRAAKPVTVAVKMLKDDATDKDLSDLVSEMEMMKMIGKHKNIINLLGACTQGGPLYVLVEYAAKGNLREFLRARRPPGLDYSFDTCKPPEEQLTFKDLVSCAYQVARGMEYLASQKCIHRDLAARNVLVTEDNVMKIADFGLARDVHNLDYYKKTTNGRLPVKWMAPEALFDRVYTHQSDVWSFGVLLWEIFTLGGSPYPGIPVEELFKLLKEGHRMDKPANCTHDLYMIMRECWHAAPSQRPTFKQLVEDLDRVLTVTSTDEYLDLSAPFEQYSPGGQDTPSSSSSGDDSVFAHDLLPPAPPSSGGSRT
From the text: as §1, §2

FGFR2 = FGFR2 (Homo sapiens (Human), UniProt P21802); assay: FGFR Enzymatic Assay (FRET peptide phosphorylation), FGFR2; conditions: read-out: FGFR2 IC50; pre-incubated for 4 hours
FGFR2, sequence (P21802 22-821): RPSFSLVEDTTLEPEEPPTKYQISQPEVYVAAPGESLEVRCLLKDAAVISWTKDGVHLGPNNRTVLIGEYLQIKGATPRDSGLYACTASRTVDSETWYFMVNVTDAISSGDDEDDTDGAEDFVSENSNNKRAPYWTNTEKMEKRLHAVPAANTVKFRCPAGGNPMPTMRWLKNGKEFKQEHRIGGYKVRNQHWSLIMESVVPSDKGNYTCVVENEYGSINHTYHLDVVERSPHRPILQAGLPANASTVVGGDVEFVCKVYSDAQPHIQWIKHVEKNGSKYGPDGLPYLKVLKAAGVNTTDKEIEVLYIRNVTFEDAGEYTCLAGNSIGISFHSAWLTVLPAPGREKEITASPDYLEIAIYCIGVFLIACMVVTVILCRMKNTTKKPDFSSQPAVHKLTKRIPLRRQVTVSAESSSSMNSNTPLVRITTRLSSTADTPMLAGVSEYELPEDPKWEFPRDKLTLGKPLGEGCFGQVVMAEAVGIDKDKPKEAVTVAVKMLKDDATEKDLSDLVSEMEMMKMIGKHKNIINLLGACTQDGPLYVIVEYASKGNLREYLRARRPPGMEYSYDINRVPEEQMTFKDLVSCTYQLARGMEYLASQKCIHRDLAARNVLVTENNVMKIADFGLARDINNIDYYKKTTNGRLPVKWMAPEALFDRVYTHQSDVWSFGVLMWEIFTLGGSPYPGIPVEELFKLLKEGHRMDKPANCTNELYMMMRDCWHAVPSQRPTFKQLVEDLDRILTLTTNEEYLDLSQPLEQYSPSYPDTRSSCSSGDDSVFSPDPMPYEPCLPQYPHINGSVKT
From the text: as §1, §2

[1] = pre-incubated for 5 to 10 minutes

FGFR4, sequence (P22455 22-802): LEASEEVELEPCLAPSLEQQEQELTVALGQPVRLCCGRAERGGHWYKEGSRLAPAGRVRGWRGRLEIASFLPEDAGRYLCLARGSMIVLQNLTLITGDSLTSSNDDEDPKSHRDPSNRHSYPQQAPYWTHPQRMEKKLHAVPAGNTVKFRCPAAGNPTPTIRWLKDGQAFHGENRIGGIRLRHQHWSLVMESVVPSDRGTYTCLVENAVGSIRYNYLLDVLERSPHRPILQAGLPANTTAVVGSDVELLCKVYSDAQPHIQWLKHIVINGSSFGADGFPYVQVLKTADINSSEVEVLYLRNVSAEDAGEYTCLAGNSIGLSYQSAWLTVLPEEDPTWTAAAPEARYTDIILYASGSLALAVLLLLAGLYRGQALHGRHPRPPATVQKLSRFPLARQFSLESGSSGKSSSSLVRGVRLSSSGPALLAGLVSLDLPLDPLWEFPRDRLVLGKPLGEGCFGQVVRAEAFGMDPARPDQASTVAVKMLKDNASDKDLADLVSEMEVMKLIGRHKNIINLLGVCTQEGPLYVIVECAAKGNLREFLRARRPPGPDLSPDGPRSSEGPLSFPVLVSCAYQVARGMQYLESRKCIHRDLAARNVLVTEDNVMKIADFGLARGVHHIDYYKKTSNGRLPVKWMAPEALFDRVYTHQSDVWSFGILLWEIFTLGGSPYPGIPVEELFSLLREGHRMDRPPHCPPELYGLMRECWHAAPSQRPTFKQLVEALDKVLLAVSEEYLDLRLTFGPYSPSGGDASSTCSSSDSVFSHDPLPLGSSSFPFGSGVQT

## C=CC(=O)Nc1cnn(C[C@@H]2CCCO2)c1-c1cc2c(cn1)CN(c1c(F)c(OC)cc(OC)c1F)C(=O)C21CC1 [Example 31, (S)-N-(5-(2′-(2,6-difluoro-3,5-dimethoxyphenyl)-3′-oxo-2′,3′-dihydro-1′H-spiro[cyclopropane-1,4′-[2,7]naphthyridine]-6′-yl)-1-((tetrahydrofuran-2-yl)methyl)-1H-pyrazol-4-yl)acrylamide]
FGFR4; pre-incubated for 4 hours
  FGFR1/FGFR4: >100
  FGFR2/FGFR4: >100
  FGFR3/FGFR4: >100
FGFR4; read-out: FGFR4 IC50, pre-incubated for 4 hours
  IC50: < 10 nM
FGFR1
  IC50: > 200 nM
FGFR3
  IC50: > 200 nM
FGFR2
  IC50: > 200 nM

## C=CC(=O)Nc1cn(CCOC(F)(F)F)nc1-c1cc2c(cn1)CN(c1c(F)c(OC)cc(OC)c1F)C(=O)C21CC1 [Example 33, N-(3-(2′-(2,6-difluoro-3,5-dimethoxyphenyl)-3′-oxo-2′,3′-dihydro-1′H-spiro[cyclopropane-1,4′-[2,7]naphthyridine]-6′-yl)-1-(2-(trifluoromethoxy)ethyl)-1H-pyrazol-4-yl)acrylamide]
FGFR4; pre-incubated for 4 hours
  FGFR1/FGFR4: >100
  FGFR2/FGFR4: >100
  FGFR3/FGFR4: >100

## C=CC(=O)Nc1cnn(CCOC)c1-c1cc2c(cn1)CN(c1c(F)c(OC)cc(OC)c1F)C(=O)C21CC1 [Example 15, N-(5-(2′-(2,6-difluoro-3,5-dimethoxyphenyl)-3′-oxo-2′,3′-dihydro-1′H-spiro[cyclopropane-1,4′-[2,7]naphthyridine]-6′-yl)-1-(2-methoxyethyl)-1H-pyrazol-4-yl)acrylamide]
FGFR4; pre-incubated for 4 hours
  FGFR1/FGFR4: >100
  FGFR2/FGFR4: >100
  FGFR3/FGFR4: >100

## C=CC(=O)Nc1cn[nH]c1-c1cc2c(cn1)CN(c1c(F)c(OC)cc(OC)c1F)C(=O)C21CC1 [Example 14, N-(5-(2′-(2,6-difluoro-3,5-dimethoxyphenyl)-3′-oxo-2′,3′-dihydro-1′H-spiro[cyclopropane-1,4′-[2,7]naphthyridine]-6′-yl)-1H-pyrazol-4-yl)acrylamide]
FGFR4; pre-incubated for 4 hours
  FGFR1/FGFR4: >100
  FGFR2/FGFR4: >100
  FGFR3/FGFR4: >100

## C=CC(=O)Nc1cn(CC2CCOCC2)nc1-c1cc2c(cn1)CN(c1c(F)c(OC)cc(OC)c1F)C(=O)C21CC1 [Example 35, N-(3-(2′-(2,6-difluoro-3,5-dimethoxyphenyl)-3′-oxo-2′,3′-dihydro-1′H-spiro[cyclopropane-1,4′-[2,7]naphthyridine]-6′-yl)-1-((tetrahydro-2H-pyran-4-yl)methyl)-1H-pyrazol-4-yl)acrylamide]
FGFR4; pre-incubated for 4 hours
  FGFR1/FGFR4: >100
  FGFR2/FGFR4: >100
  FGFR3/FGFR4: >100

## C=CC(=O)Nc1cnn(CCOCC)c1-c1cc2c(cn1)CN(c1c(F)c(OC)cc(OC)c1F)C(=O)C21CC1 [Example 16, N-(5-(2′-(2,6-difluoro-3,5-dimethoxyphenyl)-3′-oxo-2′,3′-dihydro-1′H-spiro[cyclopropane-1,4′-[2,7]naphthyridine]-6′-yl)-1-(2-ethoxyethyl)-1H-pyrazol-4-yl)acrylamide]
FGFR4; pre-incubated for 4 hours
  FGFR1/FGFR4: >100
  FGFR2/FGFR4: >100
  FGFR3/FGFR4: >100

## C=CC(=O)Nc1cc(CN2CCOCC2)cc(-c2cc3c(cn2)CN(c2c(F)c(OC)cc(OC)c2F)C(=O)C32CC2)c1 [Example 11, N-[3-[2′-(2,6-difluoro-3,5-dimethoxyphenyl)-3′-oxo-2′,3′-dihydro-1′H-spiro[cyclopropane-1,4′-[2,7]naphthyridin]-6′-yl]-5-(morpholin-4-ylmethyl)phenyl]acrylamide]
FGFR4; [1]
  FGFR1/FGFR4: >100
  FGFR2/FGFR4: >100
  FGFR3/FGFR4: >100
FGFR4; pre-incubated for 4 hours
  FGFR1/FGFR4: >100
  FGFR2/FGFR4: >100
  FGFR3/FGFR4: >100

## C=CC(=O)Nc1cc(-c2cc3c(cn2)CN(c2c(F)c(OC)cc(OC)c2F)C(=O)C32CC2)cc(N2CCOCC2)c1 [Example 10, N-{3-[2′-(2,6-difluoro-3,5-dimethoxyphenyl)-3′-oxo-2′,3′-dihydro-1′H-spiro[cyclopropane-1,4′-[2,7]naphthyridin]-6′-yl]-5-morpholin-4-ylphenyl}acrylamide]
FGFR4; [1]
  FGFR1/FGFR4: >100
  FGFR2/FGFR4: >100
  FGFR3/FGFR4: >100
FGFR4; pre-incubated for 4 hours
  FGFR1/FGFR4: >100
  FGFR2/FGFR4: >100
  FGFR3/FGFR4: >100

## C=CC(=O)Nc1cnn(Cc2ccon2)c1-c1cc2c(cn1)CN(c1c(F)c(OC)cc(OC)c1F)C(=O)C21CC1 [Example 25, N-(5-(2′-(2,6-difluoro-3,5-dimethoxyphenyl)-3′-oxo-2′,3′-dihydro-1′H-spiro[cyclopropane-1,4′-[2,7]naphthyridine]-6′-yl)-1-(isoxazol-3-ylmethyl)-1H-pyrazol-4-yl)acrylamide]
FGFR4; pre-incubated for 4 hours
  FGFR1/FGFR4: >100
  FGFR2/FGFR4: >100
  FGFR3/FGFR4: >100

## C=CC(=O)Nc1cnn(CC2CCOCC2)c1-c1cc2c(cn1)CN(c1c(F)c(OC)cc(OC)c1F)C(=O)C21CC1 [Example 24, N-(5-(2′-(2,6-difluoro-3,5-dimethoxyphenyl)-3′-oxo-2′,3′-dihydro-1′H-spiro[cyclopropane-1,4′-[2,7]naphthyridine]-6′-yl)-1-((tetrahydro-2H-pyran-4-yl)methyl)-1H-pyrazol-4-yl)acrylamide]
FGFR4; pre-incubated for 4 hours
  FGFR1/FGFR4: >100
  FGFR2/FGFR4: >100
  FGFR3/FGFR4: >100

## C=CC(=O)Nc1ccc(C#N)c(-c2cc3c(cn2)CN(c2c(F)c(OC)cc(OC)c2F)C(=O)C32CC2)c1 [Example 5, N-(4-cyano-3-(2′-(2,6-difluoro-3,5-dimethoxyphenyl)-3′-oxo-2′,3′-dihydro-1′H-spiro[cyclopropane-1,4′-[2,7]naphthyridine]-6′-yl)phenyl)acrylamide]
FGFR4; [1]
  FGFR1/FGFR4: >100
  FGFR2/FGFR4: >100
  FGFR3/FGFR4: >100
FGFR4; pre-incubated for 4 hours
  FGFR1/FGFR4: >100
  FGFR2/FGFR4: >100
  FGFR3/FGFR4: >100

## C=CC(=O)Nc1cn(CCN2CCOCC2)nc1-c1cc2c(cn1)CN(c1c(F)c(OC)cc(OC)c1F)C(=O)C21CC1 [Example 34, N-(3-(2′-(2,6-difluoro-3,5-dimethoxyphenyl)-3′-oxo-2′,3′-dihydro-1′H-spiro[cyclopropane-1,4′-[2,7]naphthyridine]-6′-yl)-1-(2-morpholinoethyl)-1H-pyrazol-4-yl)acrylamide]
FGFR4; pre-incubated for 4 hours
  FGFR1/FGFR4: >100
  FGFR2/FGFR4: >100
  FGFR3/FGFR4: >100

## C=CC(=O)Nc1cnn(CC(=O)NC)c1-c1cc2c(cn1)CN(c1c(F)c(OC)cc(OC)c1F)C(=O)C21CC1 [Example 20, N-(5-(2′-(2,6-difluoro-3,5-dimethoxyphenyl)-3′-oxo-2′,3′-dihydro-1′H-spiro[cyclopropane-1,4′-[2,7]naphthyridine]-6′-yl)-1-(2-(methylamino)-2-oxoethyl)-1H-pyrazol-4-yl)acrylamide]
FGFR4; pre-incubated for 4 hours
  FGFR1/FGFR4: >50
  FGFR2/FGFR4: >100
  FGFR3/FGFR4: >100
FGFR1
  IC50: > 200 nM
FGFR3
  IC50: > 200 nM
FGFR2
  IC50: > 200 nM

## C=CC(=O)Nc1cnn(Cc2ccnn2C)c1-c1cc2c(cn1)CN(c1c(F)c(OC)cc(OC)c1F)C(=O)C21CC1 [Example 26, N-(5-(2′-(2,6-difluoro-3,5-dimethoxyphenyl)-3′-oxo-2′,3′-dihydro-1′H-spiro[cyclopropane-1,4′-[2,7]naphthyridine]-6′-yl)-1-((1-methyl-1H-pyrazol-5-yl)methyl)-1H-pyrazol-4-yl)acrylamide]
FGFR4; pre-incubated for 4 hours
  FGFR1/FGFR4: >100
  FGFR2/FGFR4: >50
  FGFR3/FGFR4: >100

## C=CC(=O)Nc1cn(CCOC)nc1-c1cc2c(cn1)CN(c1c(F)c(OC)cc(OC)c1F)C(=O)C21CC1 [Example 32, N-(3-(2′-(2,6-difluoro-3,5-dimethoxyphenyl)-3′-oxo-2′,3′-dihydro-1′H-spiro[cyclopropane-1,4′-[2,7]naphthyridine]-6′-yl)-1-(2-methoxyethyl)-1H-pyrazol-4-yl)acrylamide]
FGFR4; pre-incubated for 4 hours
  FGFR1/FGFR4: >100
  FGFR2/FGFR4: >100
  FGFR3/FGFR4: >100

## C=CC(=O)Nc1ccc(C)c(-c2ncc3c(n2)C2(CC2)C(=O)N(c2c(F)c(OC)cc(OC)c2F)C3)c1 [Example 37, N-(3-(6′-(2,6-difluoro-3,5-dimethoxyphenyl)-7′-oxo-6′,7′-dihydro-5′H-spiro[cyclopropane-1,8′-pyrido[4,3-d]pyrimidine]-2′-yl)-4-methylphenyl)acrylamide]
FGFR4; pre-incubated for 4 hours
  FGFR1/FGFR4: >100
  FGFR2/FGFR4: >100
  FGFR3/FGFR4: >100

## C=CC(=O)Nc1cnn(CCO)c1-c1cc2c(cn1)CN(c1c(F)c(OC)cc(OC)c1F)C(=O)C21CC1 [Example 17, N-(5-(2′-(2,6-difluoro-3,5-dimethoxyphenyl)-3′-oxo-2′,3′-dihydro-1′H-spiro[cyclopropane-1,4′-[2,7]naphthyridine]-6′-yl)-1-(2-hydroxyethyl)-1H-pyrazol-4-yl)acrylamide]
FGFR4; pre-incubated for 4 hours
  FGFR1/FGFR4: >100
  FGFR2/FGFR4: >100
  FGFR3/FGFR4: >100

## C=CC(=O)Nc1cc(-c2cc3c(cn2)CN(c2c(F)c(OC)cc(OC)c2F)C(=O)C32CC2)c(C)cc1F [Example 6, N-(5-(2′-(2,6-difluoro-3,5-dimethoxyphenyl)-3′-oxo-2′,3′-dihydro-1′H-spiro[cyclopropane-1,4′-[2,7]naphthyridine]-6′-yl)-2-fluoro-4-methylphenyl)acrylamide]
FGFR4; [1]
  FGFR1/FGFR4: >100
  FGFR2/FGFR4: >100
  FGFR3/FGFR4: >100
FGFR4; pre-incubated for 4 hours
  FGFR1/FGFR4: >100
  FGFR2/FGFR4: >100
  FGFR3/FGFR4: >100
